Read-outs that look alike come from different tables or passages of the source.
Tests used:
[1] = system: Key Grass and Sedge Weeds as well as Grass Crops; test: Post-emergent Test II herbicidal activity (Table 6); format: in vivo; settings: post-emergence, 336 h; for pest or weed control at 70 g/ha: application rate 70 g ai/ha; for pest or weed control at 140 g/ha: application rate 140 g ai/ha
Method in brief: (§1)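 Post-emergence foliar spray, 187 L/ha, track sprayer at 43 cm above canopy. Carrier: acetone/water/IPA/DMSO/Atplus 411F/Triton X-155. Plants at 1st–2nd true leaf; subirrigated afterwards; % injury scored visually at 14 d.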

[2] = system: Key Broadleaf Weed and Crop Species; test: Post-emergent Test II herbicidal activity (Table 5); format: in vivo; settings: post-emergence, 336 h, post-emergent, 14 days after application; for pest or weed control at 70 g/ha: 70 g ai/ha; for pest or weed control at 140 g/ha: 140 g ai/ha
Method in brief: as §1

[3] = CYPES: yellow nutsedge (Cyperus esculentus), read-out: Visual Growth Reduction (%) 14 Days After Application, CYPES
[4] = DIGSA: crabgrass (Digitaria sanguinalis), read-out: Visual Growth Reduction (%) 14 Days After Application, DIGSA
[5] = ECHCG: barnyardgrass (Echinochloa crus-galli), read-out: Visual Growth Reduction (%) 14 Days After Application, ECHCG
[6] = ORYSA: rice (Oryza sativa), read-out: Visual Growth Reduction (%) 14 Days After Application, ORYSA
[7] = SETFA: giant foxtail (Setaria faberi), read-out: Visual Growth Reduction (%) 14 Days After Application, SETFA
[8] = SORVU: grain sorghum (Sorghum vulgare), read-out: Visual Growth Reduction (%) 14 Days After Application, SORVU
[9] = TRZSS (wheat, Triticum aestivum), read-out: Visual Growth Reduction (%) 14 Days After Application, TRZSS
[10] = ZEAMX: maize, corn (Zea mays), read-out: Visual Growth Reduction (%) 14 Days After Application, ZEAMX
[11] = ABUTH: velvetleaf (Abutilon theophrasti), read-out: Visual Growth Reduction (%) 14 Days After Application ABUTH
[12] = AMARE: redroot pigweed (Amaranthus retroflexus), read-out: Visual Growth Reduction (%) 14 Days After Application AMARE
[13] = BRSNN: oilseed-rape, canola (Brassica napus), read-out: Visual Growth Reduction (%) 14 Days After Application BRSNN
[14] = CHEAL: lambsquarters (Chenopodium album), read-out: Visual Growth Reduction (%) 14 Days After Application CHEAL
[15] = EPHHL: wild poinsettia (Euphorbia heterophylla), read-out: Visual Growth Reduction (%) 14 Days After Application EPHHL
[16] = HELAN: sunflower (Helianthus annuus), read-out: Visual Growth Reduction (%) 14 Days After Application HELAN
[17] = VIOTR: wild pansy (Viola tricolor), read-out: Visual Growth Reduction (%) 14 Days After Application VIOTR

## Nc1cc(-c2c(F)cc(I)c(F)c2F)nc(C(=O)O)c1Cl [Compound 68]
other
  melting point: 170.1 to 172.6 °C
[1]; [3]
  pest or weed control at 70 g/ha: 95 to 100%
  pest or weed control at 140 g/ha: 95 to 100%
[1]; [4]
  pest or weed control at 70 g/ha: 75 to 84%
  pest or weed control at 140 g/ha: 75 to 84%
[1]; [5]
  pest or weed control at 70 g/ha: 85 to 94%
  pest or weed control at 140 g/ha: 75 to 84%
[1]; [6]
  pest or weed control at 70 g/ha: 45 to 59%
  pest or weed control at 140 g/ha: 45 to 59%
[1]; [7]
  pest or weed control at 70 g/ha: 85 to 94%
  pest or weed control at 140 g/ha: 75 to 84%
[1]; [8]
  pest or weed control at 70 g/ha: 95 to 100%
  pest or weed control at 140 g/ha: 95 to 100%
[1]; [9]
  pest or weed control at 70 g/ha: 30 to 44%
  pest or weed control at 140 g/ha: 45 to 59%
[1]; [10]
  pest or weed control at 70 g/ha: 0 to 29%
  pest or weed control at 140 g/ha: 75 to 84%
[2]; [11]
  pest or weed control at 70 g/ha: 85 to 94%
  pest or weed control at 140 g/ha: 85 to 94%
[2]; [12]
  pest or weed control at 70 g/ha: 95 to 100%
  pest or weed control at 140 g/ha: 95 to 100%
[2]; [13]
  pest or weed control at 70 g/ha: 95 to 100%
  pest or weed control at 140 g/ha: 95 to 100%
[2]; [14]
  pest or weed control at 70 g/ha: 95 to 100%
  pest or weed control at 140 g/ha: 95 to 100%
[2]; [15]
  pest or weed control at 70 g/ha: 95 to 100%
  pest or weed control at 140 g/ha: 95 to 100%
[2]; [16]
  pest or weed control at 70 g/ha: 60 to 74%
  pest or weed control at 140 g/ha: 0 to 29%
[2]; [17]
  pest or weed control at 70 g/ha: 95 to 100%
  pest or weed control at 140 g/ha: 95 to 100%

From US9113629B2, “4-amino-6-(4-substituted-phenyl)-picolinates and 6-amino-2-(4-substituted-phenyl)-pyrimidine-4-carboxylates and their use as herbicides” (DOW AGROSCIENCES LLC, priority 2013, dated 2015)
